Data on seven molecules can be found in article PMC7948418, “Genetic and biased agonist-mediated reductions in β-arrestin recruitment prolong cAMP signaling at glucagon family receptors” (The Journal of Biological Chemistry, 2020).

Square brackets hold non-standard residues; d marks the D form. Ends that are not written are not given here.

In test [1] the target is T1, GLP-1R (Homo sapiens, UniProt P43220). The test is described as follows: β-arrestin-2 recruitment by enzyme fragment complementation (PathHunter) CHO-GLP-1R. Format: cell-based. The settings on record: read-out: βarr2 Emax (% GLP-1). A general note: Activated receptors often draw arrestin, which recruitment assays turn into a signal.
Test [2] concerns the target T1, GLP-1R. The test is described as follows: cAMP response (HTRF) in PathHunter CHO-GLP-1R cells. The class given is cell-based. The settings on record: read-out: cAMP Emax (% GLP-1).
Test [3] deals with T2, GIPR (Homo sapiens, UniProt P48546).
T2 sequence (P48546 22-466): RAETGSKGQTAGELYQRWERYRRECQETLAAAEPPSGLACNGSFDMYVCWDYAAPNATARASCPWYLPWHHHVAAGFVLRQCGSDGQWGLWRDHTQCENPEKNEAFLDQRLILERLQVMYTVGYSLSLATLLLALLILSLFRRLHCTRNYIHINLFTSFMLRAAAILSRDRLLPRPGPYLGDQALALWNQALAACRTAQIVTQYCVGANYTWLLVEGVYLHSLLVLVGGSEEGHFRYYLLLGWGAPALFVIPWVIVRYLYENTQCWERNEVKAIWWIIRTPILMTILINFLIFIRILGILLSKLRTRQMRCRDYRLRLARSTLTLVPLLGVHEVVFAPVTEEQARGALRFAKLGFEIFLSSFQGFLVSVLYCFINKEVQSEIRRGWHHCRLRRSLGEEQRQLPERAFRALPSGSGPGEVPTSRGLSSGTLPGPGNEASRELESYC
The test is described as follows: β-arrestin-2 recruitment by enzyme fragment complementation (PathHunter) CHO-GIPR. The class given is cell-based. The following applies: for Emax: read-out: βarr2 Emax (% GIP).

In test [4] the target is T2, GIPR. The test is described as follows: cAMP response (HTRF) in PathHunter CHO-GIPR cells. The class given is cell-based. The settings on record: for Emax: read-out: cAMP Emax (% GIP). For orientation: In TR-FRET formats the signal depends on donor and acceptor labels being close together.
For test [5], the target named is GLP-1R-SmBiT (UniProt P43220). The test is described as follows: split reporter (BiFC, NanoBiT); NanoBiT complementation in HEK293T cells co-transfected with receptor-SmBiT and LgBiT-tagged effector; furimazine; 37 °C; baseline 5 min, then 100 nM cognate agonist (GLP-1, GIP or GCG) or vehicle, luminescence over 30 min, normalised to baseline and vehicle.
Test [6] addresses T3, GIPR-SmBiT (UniProt P48546).
T3 sequence: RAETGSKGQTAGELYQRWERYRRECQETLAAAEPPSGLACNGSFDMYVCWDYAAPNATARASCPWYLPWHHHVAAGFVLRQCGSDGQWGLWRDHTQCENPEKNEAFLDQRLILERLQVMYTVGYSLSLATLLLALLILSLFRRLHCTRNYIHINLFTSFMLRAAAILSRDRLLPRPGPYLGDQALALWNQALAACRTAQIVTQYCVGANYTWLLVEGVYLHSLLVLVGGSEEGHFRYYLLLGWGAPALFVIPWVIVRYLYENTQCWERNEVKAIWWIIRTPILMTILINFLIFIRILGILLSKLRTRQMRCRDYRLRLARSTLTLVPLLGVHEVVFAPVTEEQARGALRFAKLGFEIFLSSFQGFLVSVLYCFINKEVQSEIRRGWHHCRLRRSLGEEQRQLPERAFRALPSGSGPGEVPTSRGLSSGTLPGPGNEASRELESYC
Described as above.

Test [7] has as its target T3, GIPR-SmBiT.
In test [8] the target is T3, GIPR-SmBiT. The source holds these as a separate data set.

T1 sequence (P43220 24-463): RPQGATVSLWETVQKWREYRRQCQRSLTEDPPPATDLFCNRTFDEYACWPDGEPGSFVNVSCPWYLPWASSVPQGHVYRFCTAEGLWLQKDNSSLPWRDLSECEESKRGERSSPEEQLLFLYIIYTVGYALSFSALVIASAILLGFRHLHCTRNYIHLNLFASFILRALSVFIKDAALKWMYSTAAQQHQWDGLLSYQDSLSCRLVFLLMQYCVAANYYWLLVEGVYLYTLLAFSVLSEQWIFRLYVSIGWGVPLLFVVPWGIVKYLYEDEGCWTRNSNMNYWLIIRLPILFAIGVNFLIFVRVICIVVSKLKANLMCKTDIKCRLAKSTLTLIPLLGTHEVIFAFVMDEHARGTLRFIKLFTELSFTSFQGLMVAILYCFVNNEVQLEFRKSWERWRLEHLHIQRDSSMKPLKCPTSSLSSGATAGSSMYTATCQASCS
Sequence of GLP-1R-SmBiT (P43220 24-463): as above

Regarding `CC[C@H](C)[C@H](NC(=O)[C@H](Cc1ccccc1)NC(=O)[C@H](CCC(=O)O)NC(=O)[C@H](CCCCN)NC(=O)[C@H](C)NC(=O)[C@H](C)NC(=O)[C@H](CCC(N)=O)NC(=O)CNC(=O)[C@H](CCC(=O)O)NC(=O)[C@H](CC(C)C)NC(=O)[C@H](Cc1ccc(O)cc1)NC(=O)[C@H](CO)NC(=O)[C@H](CO)NC(=O)[C@@H](NC(=O)[C@H](CC(=O)O)NC(=O)[C@H](CO)NC(=O)[C@@H](NC(=O)[C@H](Cc1ccccc1)NC(=O)[C@@H](NC(=O)CNC(=O)[C@@H](CCC(N)=O)NC(=O)[C@H](C)NC(=O)[C@@H](N)Cc1c[nH]cn1)[C@@H](C)O)[C@@H](C)O)C(C)C)C(=O)N[C@@H](C)C(=O)N[C@@H](Cc1c[nH]c2ccccc12)C(=O)N[C@@H](CC(C)C)C(=O)N[C@H](C(=O)N[C@@H](CCCCN)C(=O)NCC(=O)N[C@@H](CCCNC(=N)N)C(N)=O)C(C)C` [GLP-1-dGln3], the Emax (commonly the size of the effect at its maximum, as opposed to the concentration needed) in test [1] (30 min at 37 °C, 4-parameter fit, mean ± SEM, n = 5) is 60 ± 4%; in test [2] (30-min stimulation, 37 °C, no phosphodiesterase inhibitors, 4-parameter fit, mean ± SEM, n = 5), 106 ± 5%.
For the molecule “YA[dQ]GTFISDYSIAMDKIHQQDFVNWLLAQKGKKNDWKHNITQ [GIP-dGln3]”, the EC50 (commonly the concentration at which the effect is half-maximal) in test [3] was 316 nM; in test [4], 25.1 nM. In addition, the values for the Emax in test [3] and in test [4] were 23 ± 1% and 110 ± 4%, respectively.
Regarding LgBiT-mini-Gs, the t1/2 of ligand-induced mini-Gs recruitment in test [5] came out at 1.5 min; in test [6], 7.1 min.
For the molecule “YGEGTFISDYSIAMDKIHQQDFVNWLLAQKGKKNDWKHNITQ [GIP-Gly2]”, the EC50 is 316 nM in test [3] and 0.794 nM in test [4]. Also, the Emax amounted to 66 ± 7% in test [3] and 100 ± 4% in test [4].
In the case of “FAEGTFISDYSIAMDKIHQQDFVNWLLAQKGKKNDWKHNITQ [GIP-Phe1]”, the EC50 in test [3] was 1000 nM; in test [4], 2 nM. Moreover, the Emax worked out at 65 ± 3% in test [3] and 99 ± 3% in test [4].
`CC[C@H](C)[C@H](NC(=O)[C@H](Cc1ccccc1)NC(=O)[C@H](CCC(=O)O)NC(=O)[C@H](CCCCN)NC(=O)[C@H](C)NC(=O)[C@H](C)NC(=O)[C@H](CCC(N)=O)NC(=O)CNC(=O)[C@H](CCC(=O)O)NC(=O)[C@H](CC(C)C)NC(=O)[C@H](Cc1ccc(O)cc1)NC(=O)[C@H](CO)NC(=O)[C@H](CO)NC(=O)[C@@H](NC(=O)[C@H](CC(=O)O)NC(=O)[C@H](CO)NC(=O)[C@@H](NC(=O)[C@H](Cc1ccccc1)NC(=O)[C@@H](NC(=O)CNC(=O)[C@H](CCC(=O)O)NC(=O)CNC(=O)[C@@H](N)Cc1c[nH]cn1)[C@@H](C)O)[C@@H](C)O)C(C)C)C(=O)N[C@@H](C)C(=O)N[C@@H](Cc1c[nH]c2ccccc12)C(=O)N[C@@H](CC(C)C)C(=O)N[C@H](C(=O)N[C@@H](CCCCN)C(=O)NCC(=O)N[C@@H](CCCNC(=N)N)C(N)=O)C(C)C` [GLP-1-Gly2]: the Emax is 93 ± 3% in test [1] and 95 ± 4% in test [2].
For the molecule YAEGTFISDYSIAMDKIHQQDFVNWLLAQKGKKNDWKHNITQ [GIP(1–42)], in test [7], the cytoplasmic PKA activation (AKAR4-NES FRET, AUC), Log EC50, wildtype HEK293 cells co-transfected with SNAP-GIPR was -10.1 Log EC50 (M) and the cytoplasmic PKA activation (AKAR4-NES FRET, AUC), Log EC50, β-arrestin-1/2 knockout HEK293 cells co-transfected with SNAP-GIPR is -10.9 Log EC50 (M). Besides, in test [8], the cAMP (HTRF), Log EC50, 10 min stimulation, wildtype HEK293 cells transiently transfected with SNAP-GIPR is -9.4 Log EC50 (M); the cAMP (HTRF), Log EC50, 10 min stimulation, β-arrestin-1/2 knockout HEK293 cells transiently transfected with SNAP-GIPR is -9.1 Log EC50 (M); the cAMP (HTRF), Log EC50, 60 min stimulation, wildtype HEK293 cells transiently transfected with SNAP-GIPR was -9.6 Log EC50 (M); the cAMP (HTRF), Log EC50, 60 min stimulation, β-arrestin-1/2 knockout HEK293 cells transiently transfected with SNAP-GIPR is -9.7 Log EC50 (M).
